The source of these data is article PMC6543911, “Discovery of Coumarin as Microtubule Affinity-Regulating Kinase 4 Inhibitor That Sensitize Hepatocellular Carcinoma to Paclitaxel” (Frontiers in Chemistry, 2019).

One data set has as its target Src (Homo sapiens, UniProt P12931). Put plainly: Kinase activity assay using Src as enzyme. Format: biochemical. Conditions: duplicate, means ± SEM. The protocol:
(§1) With these coumarins in hand, we performed kinase assay using MARK4 catalytic domain as enzyme to test the MARK4 inhibitory activity of these samples. […] To characterize the selectivity of compound 50, we performed kinase activity assay by using PDK1, AKT1, Src, and MARK4 as enzyme.
(§2) The kinase activity of MARK4 was measured via ADP-Glo™ kinase assay kit (Promega, USA) under manufacturer's instruction. The recombinant MARK4 catalytic domain was used as kinase. MARK4 (5 nM) activity was tested in a reaction (10 μL) containing 25 mM Tris (pH 7.6), 10 mM MgCl2, 150 mM NaCl, 1 mM EDTA, 1 mM DTT, 100 μM ATP, 5 μM MAP4 and varied concentrations of samples for 30 min. The reaction progress was monitored on Thermo Scientific Varioskan Flash Multimode Reader. Each data point was collected in duplicate and kinetic parameters were obtained using GraphPad Prism v6.0 software.

The target of data set [1] is T1, MARK4 catalytic domain (Homo sapiens, UniProt Q96L34).
T1 construct: The recombinant MARK4 catalytic domain was used as kinase; made in house; host or cells: E. coli BL21 (DE3)
Put plainly: Kinase activity assay (ADP-Glo) using MARK4 as enzyme. In kind it is biochemical. The note with it: for IC50: MARK4 5 nM, 100 μM ATP, 5 μM MAP4, 30 min, duplicate, means ± SEM. The method, then: MARK4 catalytic domain sequence was subcloned into pET-28a vector. Protein expression in E. coli. BL21 (DE3) was induced by IPTG overnight at 16°C, and the cells were then pelleted by centrifugation at 4,000 rpm for 15 min and resuspended in 20 mL buffer (20 mM Tris-HCl, 150 mM NaCl, 25 mM imidazole pH 8.0). Proteins were purified by nickel-affinity chromatography followed by thrombin cleavage. The proteins were further purified by size-exclusion chromatography using a Superdex 75 column (GE Healthcare).
as §2
(ADP-Glo turns the ADP formed in a reaction into a luminescent signal.)

The next data set deals with MARK4. On the set-up: method as in Naz et al., 2015. Conditions: ref Naz et al., 2015; read-out: Kd between BX-795 and MARK4; cited from earlier work.
For another data set, the target named is T2, PDK1 (Homo sapiens, UniProt O15530).
T2 sequence (O15530 1-556): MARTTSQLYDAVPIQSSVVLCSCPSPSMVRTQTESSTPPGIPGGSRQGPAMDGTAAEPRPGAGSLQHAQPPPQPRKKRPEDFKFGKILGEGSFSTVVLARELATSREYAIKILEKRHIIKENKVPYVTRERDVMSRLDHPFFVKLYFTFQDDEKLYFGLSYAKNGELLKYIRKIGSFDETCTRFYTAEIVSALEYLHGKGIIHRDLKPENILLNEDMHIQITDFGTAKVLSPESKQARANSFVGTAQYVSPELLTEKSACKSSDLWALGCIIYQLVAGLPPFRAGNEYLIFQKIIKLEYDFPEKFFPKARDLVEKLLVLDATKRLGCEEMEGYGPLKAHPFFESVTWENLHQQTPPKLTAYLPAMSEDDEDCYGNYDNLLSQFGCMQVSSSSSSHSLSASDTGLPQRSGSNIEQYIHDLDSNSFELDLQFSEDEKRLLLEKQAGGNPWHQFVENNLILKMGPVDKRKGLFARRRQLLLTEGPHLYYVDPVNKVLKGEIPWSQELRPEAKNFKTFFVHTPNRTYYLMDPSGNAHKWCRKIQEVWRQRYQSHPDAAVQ
Description: Kinase activity assay using PDK1 as enzyme. Conditions: duplicate, means ± SEM. In kind it is biochemical. The method, then:
as §1, §2

The next data set addresses AKT1 (Homo sapiens, UniProt P31749). Description: Kinase activity assay using AKT1 as enzyme. Format: biochemical. The note with it: duplicate, means ± SEM. The protocol:
as §1, §2

The subject of data set [2] is SMMC-7721 cells. Put plainly: Cell apoptosis assay (Annexin V-FITC/PI flow cytometry) in SMMC-7721 cells. In kind it is cell-based. The note with it: 15 μM, 36 h. The protocol: (§3) HCC cells (2 × 10^5 cells/well) were plated in a 6-well plate and treated with samples at 37°C for 36 h. After incubation, the cells were harvested and washed with ice-cold PBS. Annexin V-FITC-PI apoptosis detection kit (Abcam, USA) was used for a direct observation of viable, early apoptotic, and late apoptotic cells. Annexin V-FITC and propidium iodide were added according to the manufacturer's instructions, and the samples were incubated in the dark for 15 min. The apoptosis ratio was analyzed using BD FACSCalibur flow cytometry.

In data set [3] the test system is HepG2 cells. Description: Cell apoptosis assay (Annexin V-FITC/PI flow cytometry) in HepG2 cells. Format: cell-based. The protocol:
as §3
For orientation: In flow cytometry, cells or beads pass a laser one at a time.

For data set [4], the target named is T1, MARK4 catalytic domain. Put plainly: Thermal shift assay. In kind it is binding. Conditions: sample 1 μM. The protocol: Recombinant MARK4 catalytic domain was diluted with PBS and divided into two aliquots, with one aliquot being treated with sample (1 μM) and the other aliquot with vehicle. After 20 min of incubation at room temperature, the respective mixtures were divided into smaller (40 μL) aliquots and heated individually at different temperatures for 3 min, followed by cooling at room temperature for 3 min. The appropriate temperatures were determined in preliminary CETSA experiments. The heated mixtures were centrifuged at 20,000 × g at 4°C for 20 min in order to separate the soluble fractions from precipitates. The supernatants were transferred to new microtubes and analyzed by HPLC.

In the next data set the test system is HEK-293T cells. Put plainly: Cell viability assay in HEK-293T cells. Format: cell-based. Conditions: human normal HEK-293T cells.
Data set [5] relates to HepG2 cells. Put plainly: Cell viability assay (MTT) in HepG2 cells. Format: cell-based. The protocol: (§4) HepG2 and SMMC-7721 cells were cultured in DMEM medium (Gibco) supplemented with 10% FBS (Gibco, USA). For transient transfection, cells were transfected with DNA by Lipofectamine 2000 (Thermo fisher, USA).
(§5) HCC cells (100 μL/each well, 20,000 cells/mL) were seeded in a 96-well culture plate and allowed to grow for 24 h in DMEM medium supplemented with 10% FBS and 1% penicillin/streptomycin sulfate. The cells were then treated with drugs or vehicle control and incubated in a 5% CO2 incubator for indicated time. At the end of incubation, 10 μL of MTT stock solution (5 mg/mL) was added into each well. The plate was continued to be incubated at 37°C for 4 h before the medium was removed. Then, DMSO (100 μL) was added into each well, followed by thorough shaking. The absorbance of the formazan product was measured at 570 nm on Thermo Scientific Varioskan Flash Multimode Reader. The IC50 value was obtained by fitting dose-response data to a three parametric non-linear regression model using GraphPad Prism 6.0 software.

For data set [6], the system named is HepG2 cells. Description: Colony formation assay of HepG2 cells. Format: cell-based. The note with it: compared with vehicle.
Data set [7] has as its system SMMC-7721 cells. Put plainly: Cell viability assay (MTT) in SMMC-7721 cells. Format: cell-based. The protocol:
as §4, §5

The target of data set [8] is T1, MARK4 catalytic domain. Put plainly: Surface plasmon resonance (SPR) assay. In kind it is binding. Conditions: different sample concentrations, read-out: dissociation constant (Kd value) toward MARK4. The protocol: The interaction of small molecule with MARK4 was monitored by surface plasmon resonance (SPR) using a BIAcore T100 instrument (GE Healthcare, USA). In brief, recombinant MARK4 catalytic domain was immobilized on a carboxyl methylated dextran sensor chip (Sensor Chip CM3). A flow channel blocked by ethanolamine was used as control surface. The specific interaction of samples with the immobilized MARK4 catalytic domain was assessed. All samples were analyzed at a flow rate of 30 μL/min with 10 mM HEPES running buffer and contact time of 260 s. The surface was washed and regenerated with a 10 mM glycine-HCl buffer at pH 3.0 followed by a 30 min waiting time for dissolution after each experiment. The analyses were performed in BIAcore T100 evaluation software, version 2.0.2 (GE Healthcare, USA).
A general note: SPR reads the build-up and loss of mass on a sensor chip optically.

The next data set relates to MAP4 phosphorylation. Put plainly: Immunoblotting of MAP4 phosphorylation in HepG2 cell lysates. Format: cell-based. The note with it: HepG2 cells, 15 μM, 36 h. The protocol:
HepG2 cells (2 × 10^5 cells/well) were plated in a 6-well plate and treated with compound 50 (15 μM) and vehicle at 37°C for 36 h. Cells were harvested, washed with physiological saline, and lysed with RIPA lysis buffer (Beyotime) including phosphatase and protease cocktail (Bimake). Protein was quantified by BCA protein assay kit (Bestbio) and subjected to SDS-PAGE. The separated proteins were transferred onto PVDF membranes and probed with antibody (anti-p-MAP4, anti-MAP4, and anti-actin) and peroxidase-conjugated secondary antibody, which was followed by enhanced chemiluminescence detection (Amersham Biosciences).

T1 sequence (Q96L34 59-310 limits assumed): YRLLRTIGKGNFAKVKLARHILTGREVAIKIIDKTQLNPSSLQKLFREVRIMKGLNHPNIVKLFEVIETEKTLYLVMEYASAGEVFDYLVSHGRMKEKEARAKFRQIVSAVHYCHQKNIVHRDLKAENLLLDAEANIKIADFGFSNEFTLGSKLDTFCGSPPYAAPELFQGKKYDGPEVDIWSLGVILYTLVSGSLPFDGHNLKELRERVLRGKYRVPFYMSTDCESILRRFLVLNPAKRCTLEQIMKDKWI
AKT1, sequence (P31749 whole entry, species assumed): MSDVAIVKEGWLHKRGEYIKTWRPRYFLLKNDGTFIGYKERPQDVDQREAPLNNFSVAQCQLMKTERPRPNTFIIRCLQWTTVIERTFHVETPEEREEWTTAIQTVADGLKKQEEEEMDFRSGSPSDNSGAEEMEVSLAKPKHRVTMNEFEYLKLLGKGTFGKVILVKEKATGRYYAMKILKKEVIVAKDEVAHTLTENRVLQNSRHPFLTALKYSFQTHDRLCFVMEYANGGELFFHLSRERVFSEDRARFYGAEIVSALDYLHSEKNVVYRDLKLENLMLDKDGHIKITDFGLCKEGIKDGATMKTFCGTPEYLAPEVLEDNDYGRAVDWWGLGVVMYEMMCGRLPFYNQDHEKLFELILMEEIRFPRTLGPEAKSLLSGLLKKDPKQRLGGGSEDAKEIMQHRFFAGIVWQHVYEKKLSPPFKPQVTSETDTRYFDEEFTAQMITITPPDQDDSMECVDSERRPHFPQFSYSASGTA
Src, sequence (P12931 whole entry, species assumed, the tested form may be a part): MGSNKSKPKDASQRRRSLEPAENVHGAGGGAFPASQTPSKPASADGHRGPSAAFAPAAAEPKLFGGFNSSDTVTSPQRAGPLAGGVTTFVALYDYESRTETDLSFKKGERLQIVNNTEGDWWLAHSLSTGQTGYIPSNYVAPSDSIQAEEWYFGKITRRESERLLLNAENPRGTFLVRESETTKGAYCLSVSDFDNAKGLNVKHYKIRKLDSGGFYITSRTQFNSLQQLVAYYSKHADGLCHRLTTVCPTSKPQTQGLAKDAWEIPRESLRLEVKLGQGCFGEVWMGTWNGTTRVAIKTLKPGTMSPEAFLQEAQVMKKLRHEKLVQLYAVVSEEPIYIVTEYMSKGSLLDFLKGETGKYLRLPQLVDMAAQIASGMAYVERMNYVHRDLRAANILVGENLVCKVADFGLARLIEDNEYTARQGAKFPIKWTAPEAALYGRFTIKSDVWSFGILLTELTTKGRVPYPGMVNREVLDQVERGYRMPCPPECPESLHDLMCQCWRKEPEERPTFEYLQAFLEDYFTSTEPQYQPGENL

The IC50 is the concentration that gives 50% inhibition. A high value points to lower potency. What is called Kd is the equilibrium constant for the complex coming apart. As to `O=C(NCCCNc1nc(Nc2cccc(NC(=O)N3CCCC3)c2)ncc1I)c1cccs1` [BX-795, reference compound], the IC50 stood at 5.87 ± 0.405 µM at Src, 4.99 ± 0.812 µM at MARK4 catalytic domain [1], 1.68 ± 0.192 µM against PDK1 and 2.87 ± 0.269 µM at AKT1. Besides, at MARK4, the Kd is 6.46 µM.
What is called inhibition is the relative decrease from the control value, in per cent. The low end stands for little suppression, the high end for strong suppression. In general, viability refers to a read-out of living cells in per cent, often relative to untreated cells. With `COc1ccc2oc(=O)c(C(=O)c3ccccc3)cc2c1` [Compound 50, 3-benzoyl-6-methoxy-2H-chromen-2-one], the “apoptosis: cell numbers of early and late apoptotic cells” value is recorded as “obviously increased” with SMMC-7721 cells [2] and “obviously increased” in the data set on HepG2 cells [3] (15 μM, 36 h). For the same molecule, the IC50 against Src stood at 19 ± 1.32 µM; at MARK4 catalytic domain [1], 1.3 ± 0.102 µM; at PDK1, 5.97 ± 0.289 µM; in the data set on HepG2 cells [5] (Homo sapiens, HepG2 cells, MTT) it was 11.2 µM; on AKT1, 11.8 ± 0.336 µM; with SMMC-7721 cells [7] (Homo sapiens, MTT) it was 12.8 µM. This molecule also showed an inhibition at 10 µM against MARK4 catalytic domain [1] (at 10 μM) of approximately 80%. The “apoptosis, single agent” value in the data set with HepG2 cells [3] (2.5 μM alone) is “unable to trigger distinct apoptosis”. The “apoptosis, combination with paclitaxel” value in the data set on HepG2 cells [3] (compound 50 2.5 μM in combination with paclitaxel 2.5 μM) was “activated HCC apoptosis”. For the same molecule, on MARK4 catalytic domain [4], the “temperature shift of MARK4 thermal stability (ΔT)” value was 3.13 °C. For the same molecule, in the data set on HEK-293T cells, the “concentrations at which cell viability of HEK-293T cells was suppressed” value is more than 50 µM. In the data set on HepG2 cells [5] (HepG2 cells transiently transfected with MARK4-knockdown vs control vectors), the “effect of MARK4-knockdown on anti-proliferative activity” value is given as “significantly attenuated”. The “inhibitory activity of paclitaxel in the presence of compound” value in the data set with HepG2 cells [5] (HepG2 cells, varied paclitaxel concentrations with 2.5 μM compound 50) is listed as “remarkably enhanced”; in the data set on SMMC-7721 cells [7] (varied paclitaxel concentrations with 2.5 μM compound 50) it was “remarkably enhanced”. Moreover, the viability at 2.5 µM in the data set with HepG2 cells [5] (Homo sapiens, HepG2 cells, 2.5 μM compound alone, read-out: cell viability upon treatment) is more than 80%; in the data set on SMMC-7721 cells [7] (Homo sapiens, 2.5 μM compound alone, read-out: cell viability upon treatment) it was more than 80%. For the same molecule, in the data set on HepG2 cells [6], the “colony formation of HepG2 cells” value is listed as “significantly suppressed”. The Kd at MARK4 catalytic domain [8] amounted to 0.346 µM. Further, in the data set on MAP4 phosphorylation, the “level of MAP4 phosphorylation” value is recorded as “decreased”.
